Experimental data from patent US8642657B2 (Gruenenthal GmbH, priority 2003, dated 2014).
Read-outs that look alike come from different tables or passages of the source.

Columns and labels:
rat VR1 = biological target: T1, rat VR1 (Rattus norvegicus, UniProt O35433); experiment: [3H]resiniferatoxin (RTX) competition binding assay, VR1-transfected CHO cells
T1 construct: expressed in transfected cells
Procedure: The pUHG102 VR1 plasmid was transfected into CHO cells containing the pTet Off regulatory plasmid (Clontech). In these cells, expression of the VR1 is repressed in the presence of tetracycline but is induced upon removal of the antibiotic. Stable clones were isolated in culture medium containing puromycin (10 μg/mL) and maintained in HAM F12 medium supplemented with tetracycline (1 μg/mL), 5 μg/ml geniticin, 25 mM HEPES, 10% FBS. Cells utilized for assays were grown in culture medium without antibiotic for 48 h before use. Cells were seeded in T75 cell culture flasks in media without antibiotics and grown to approximately 90% confluence. The flasks were then washed with PBS and harvested in 0.25% trypsin, 1 mM EDTA. The cells were pelleted by gentle centrifugation and stored at −20° C. until assay.
Competition Binding Assay
Binding studies with [^3H]resiniferatoxin (RTX) were carried out as described previously with minor modifications (Szallasi et al., 1992). Binding assay mixtures were set up on ice and contained 50-100 pM [^3H]RTX, various concentrations of competing ligands, 0.25 mg/mL BSA (Cohn fraction V), and about 5×10^5 VR1-transfected cells. The final volume was adjusted to 350 μL with DPBS with Ca^2+ and Mg^2+ and 0.25 mg/mL bovine serum albumin. Non-specific binding was determined in the presence of 100 nM nonradioactive RTX. The binding reaction was initiated by transferring the assay mixtures to a 37° C. water bath and was terminated after a 60 min incubation period by cooling the tubes on ice. To reduce non-specific binding, 200 μg/ml α-glycoprotein was added. Membrane-bound RTX was then separated from the free by pelleting the membranes in a Beckman 12 benchtop centrifuge (15 min, maximal velocity), the tips of the tubes containing the pellets were cut off, and the radioactivity was determined by scintillation counting. Equilibrium binding parameters (Ki and cooperativity) were determined by fitting the Hill equation to the measured values with the aid of the program MicroCal Origin 6.0.
Initial stocks were dissolved in DMSO. For the binding assays, compounds were diluted in with DPBS with Ca^2+ and Mg^2+ and 0.25 mg/mL bovine serum albumin. For the calcium uptake assays, compounds were diluted in DMEM with 0.25 mg/mL bovine serum albumin.

[1] = competition with [3H]RTX, rat VR1 in CHO cells, read-out: Ki (nM) Binding Affinity

T1 sequence (O35433 whole entry): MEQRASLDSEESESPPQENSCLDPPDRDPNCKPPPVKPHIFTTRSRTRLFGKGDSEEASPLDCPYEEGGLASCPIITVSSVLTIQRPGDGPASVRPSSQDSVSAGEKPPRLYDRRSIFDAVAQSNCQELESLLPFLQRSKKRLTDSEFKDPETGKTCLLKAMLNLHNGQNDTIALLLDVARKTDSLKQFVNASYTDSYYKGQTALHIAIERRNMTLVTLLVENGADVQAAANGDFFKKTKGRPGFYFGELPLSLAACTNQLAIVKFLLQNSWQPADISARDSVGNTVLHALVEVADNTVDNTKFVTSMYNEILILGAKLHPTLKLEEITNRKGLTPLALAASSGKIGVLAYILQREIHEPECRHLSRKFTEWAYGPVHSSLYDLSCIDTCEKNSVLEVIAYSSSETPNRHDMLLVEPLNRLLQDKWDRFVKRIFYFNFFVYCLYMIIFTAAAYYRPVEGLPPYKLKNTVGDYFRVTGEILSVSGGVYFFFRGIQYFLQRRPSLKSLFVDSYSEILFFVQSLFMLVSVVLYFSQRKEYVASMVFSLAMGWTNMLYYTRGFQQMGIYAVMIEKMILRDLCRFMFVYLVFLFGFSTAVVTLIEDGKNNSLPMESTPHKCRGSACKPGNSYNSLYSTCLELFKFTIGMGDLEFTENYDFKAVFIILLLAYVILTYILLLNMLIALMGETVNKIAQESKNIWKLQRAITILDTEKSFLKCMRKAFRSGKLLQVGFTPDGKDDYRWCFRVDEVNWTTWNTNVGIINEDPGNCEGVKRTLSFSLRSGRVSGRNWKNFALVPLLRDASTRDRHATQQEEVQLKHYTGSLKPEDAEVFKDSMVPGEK

SMILES | melting point [°C] | Ki (rat VR1; [1]) [nM] | Ki (rat VR1) [nM]
CC(C(=O)NCc1ccc(C(C)(C)C)cc1)c1ccc(NS(C)(=O)=O)c(N2CCOCC2)c1 (stereo not drawn) [1-62, N-(4-tert-Butylbenzyl)-2-[3-morpholino-4-(methylsulfonylamino)phenyl]propionamide] | 78 |  | 
CC(C(=O)NCC=C(c1ccccc1)c1ccccc1)c1ccc(NS(C)(=O)=O)c(F)c1 (stereo not drawn) [4-25, N-(3,3-Diphenyl-2-propenyl)-2-[3-fluoro-4-(methylsulfonylamino)phenyl]propionamide] | 155 to 157 |  | 
Cc1ccc(CNC(=O)C(C)c2ccc(NS(C)(=O)=O)c(F)c2)cc1 (stereo not drawn) [4-7, N-(4-Methylbenzyl)-2-[3-fluoro-4-(methylsulfonylamino)phenyl]propionamide] | 166 |  | 
C[C@H](C(=O)N[C@H](COC(=O)C(C)(C)C)Cc1ccccc1)c1ccc(NS(C)(=O)=O)c(F)c1 [6-2, N—[(S)-1-Benzyl-2-(pivaloyloxy)ethyl]-(S)-2-[3-fluoro-4-(methylsulfonylamino)phenyl]propionamide] | 125 to 126 |  | 
CC(C(=O)NC(c1ccccc1)c1ccccc1)c1ccc(NS(C)(=O)=O)c(F)c1 (stereo not drawn) [4-22, N-Benzhydryl-2-[3-fluoro-4-(methylsulfonylamino)phenyl]propionamide] | 160 to 161 | 5860 | 
COc1cc(C(C)C(=O)NCC(COC(=O)C(C)(C)C)Cc2ccc(C(C)(C)C)cc2)ccc1NS(C)(=O)=O (stereo not drawn) [5-6, N-[2-(4-tert-Butylbenzyl)-3-pivaloyloxypropyl]-2-[3-methoxy-4-(methylsulfonylamino)phenyl]propionamide] | 54 to 57 | 24 | 
Cc1ccc(CCCNC(=O)C2(c3ccc(NS(C)(=O)=O)c(F)c3)CC2)cc1C [12-5, N-[3-(3,4-Dimethylphenyl)propyl]-1-[3-fluoro-4-(methylsulfonylamino)phenyl]cyclopropanecarboxamide] | 127 to 128 |  | 
CC(C(=O)NCc1ccc(C(C)(C)C)cc1)c1ccc(NS(C)(=O)=O)c(N2CCCCC2)c1 (stereo not drawn) [1-61, N-(4-tert-Butylbenzyl)-2-[3-piperidino-4-(methylsulfonylamino)phenyl]propionamide] | 125 |  | 
CC(C(=O)NCc1ccc(C(C)(C)C)cc1)c1ccc(NS(C)(=O)=O)c(N2CCN(C(=O)OC(C)(C)C)CC2)c1 (stereo not drawn) [1-63, N-(4-tert-Butylbenzyl)-2-[3-(N-boc)piperazino-4-(methylsulfonylamino)phenyl]propionamide] | 103 |  | 
CC(C(=O)NC1CCCc2ccccc21)c1ccc(NS(C)(=O)=O)c(F)c1 (stereo not drawn) [4-13, N-(1,2,3,4-Tetrahydro-1-naphthalenyl)-2-[3-fluoro-4-(methylsulfonylamino)phenyl]propionamide] | 116 to 117 |  | 
CC(C(=O)NCc1ccc(C(C)(C)C)cc1)c1ccc(NS(C)(=O)=O)c(C(=O)OC(C)(C)C)c1 (stereo not drawn) [1-57, N-(4-tert-Butylbenzyl)-2-[3-(t-butoxycarbonyl)-4-(methylsulfonylamino)phenyl]propionamide] | 75 to 77 | 6730 | 
CC(C(=O)NCc1ccc(C(C)(C)C)cc1)c1ccc(NS(C)(=O)=O)c(C(=O)O)c1 (stereo not drawn) [1-58, N-(4-tert-Butylbenzyl)-2-[3-carboxyl-4-(methylsulfonylamino)phenyl]propionamide] | 180 to 183 |  | 
CC(C(=O)NCC=Cc1ccc(Cl)cc1)c1ccc(NS(C)(=O)=O)c(F)c1 (stereo not drawn) [4-20, N-[3-(4-Chlorophenyl)-2-propenyl]-2-[3-fluoro-4-(methylsulfonylamino)phenyl]propionamide] | 151 to 153 |  | 
C[C@H](NC(=S)NCc1ccc(C(C)(C)C)cc1)c1ccc(NS(C)(=O)=O)cc1 [16-6, N-(4-t-Butylbenzyl)-N′-{(1S)-1-[4-(methylsulfonylamino)phenyl]ethyl}thiourea] | 101 |  | 3590
CC(C)(C)c1ccc(CNC(=O)C2(c3ccc(NS(C)(=O)=O)c(F)c3)CC2)cc1 [12-8, N-(4-tert-Butylbenzyl)-1-[3-fluoro-4-(methylsulfonylamino)phenyl]cyclopropanecarboxamide] | 200 to 203 |  | 
Cc1ccc(C=CCNC(=O)C(C)c2ccc(NS(C)(=O)=O)c(F)c2)cc1C (stereo not drawn) [4-18, N-[3-(3,4-Dimethylphenyl)-2-propenyl]-2-[3-fluoro-4-(methylsulfonylamino)phenyl]propionamide] | 144 to 146 |  | 
CC(C(=O)NCc1ccc(C(C)(C)C)cc1)c1ccc(NS(C)(=O)=O)c(N2CCNCC2)c1 (stereo not drawn) [1-64, N-(4-tert-Butylbenzyl)-2-[3-piperazino-4-(methylsulfonylamino)phenyl]propionamide] | 92 |  | 
CC(C(=O)NCc1ccc(C(C)(C)C)cc1)c1ccc(NS(C)(=O)=O)c(C(=O)NCc2ccccc2)c1 (stereo not drawn) [1-60, N-(4-tert-Butylbenzyl)-2-[3-(benzylamino)carbonyl-4-(methylsulfonylamino)phenyl]propionamide] | 79 to 81 | 3710 | 
CC(C(=O)NCCCc1ccc(Cl)cc1)c1ccc(NS(C)(=O)=O)c(F)c1 (stereo not drawn) [4-19, N-[3-(4-Chlorophenyl)propyl]-2-[3-fluoro-4-(methylsulfonylamino)phenyl]propionamide] | 141 to 143 |  | 
CC(NC(=O)C=Cc1ccc(C(C)(C)C)cc1)c1ccc(NS(C)(=O)=O)c(F)c1 (stereo not drawn) [24-3, N-{1-[3-Fluoro-4-(methylsulfonylamino)phenyl]ethyl}-3-(4-tert-butylphenyl)-2-propenamide] | 154 to 156 |  | 
CC(NC(=S)NC(COC(=O)C(C)(C)C)Cc1ccccc1)c1ccc(NS(C)(=O)=O)cc1 [19-15, N-[(2R)-3-phenyl-1-pivaloyloxy-2-propyl]-N′-[(S)-α-methyl-4-(methylsulfonylamino)benzy]thiourea] | 61 to 64 |  | 
CC(NC(=S)NCc1ccc(C(C)(C)C)cc1)c1ccc(NS(C)(=O)=O)c(C(=O)O)c1 (stereo not drawn) [15-5, N-(4-t-Butylbenzyl)-N′-{1-[3-carboxy-4-(methylsulfonylamino)phenyl]ethyl}thiourea] | 189 to 192 |  | 2770
CC(C(=O)NOCc1ccccc1)c1ccc(NS(C)(=O)=O)c(F)c1 (stereo not drawn) [4-21, N-Benzyloxy-2-[3-fluoro-4-(methylsulfonylamino)phenyl]propionamide] | 182 to 183 | 9420 | 
